Data on one molecule can be found in paper PMC6934184, “Selective DNA-PKcs inhibition extends the therapeutic index of localized radiotherapy and chemotherapy” (The Journal of Clinical Investigation, 2019).

This assay has as its target T1, MST4 (Homo sapiens, UniProt Q9P289).
T1 construct: purchased Thermo Fisher Scientific (Life Technologies) SelectScreen
Description: SelectScreen Z'LYTE. In kind it is biochemical. The gist of the method: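 NU5455 was profiled across the SelectScreen Broad panel of kinase activity and binding assays. Z'LYTE reactions such as CSF1R ran at apparent Km ATP, while the Adapta CAMK1 assay used ATP listed as 10. Values are given as percent.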

The term inhibition denotes the change of the read-out against control, counted positive when it falls. The low end stands for little suppression, the high end for strong suppression.

T1 sequence (Q9P289 whole entry): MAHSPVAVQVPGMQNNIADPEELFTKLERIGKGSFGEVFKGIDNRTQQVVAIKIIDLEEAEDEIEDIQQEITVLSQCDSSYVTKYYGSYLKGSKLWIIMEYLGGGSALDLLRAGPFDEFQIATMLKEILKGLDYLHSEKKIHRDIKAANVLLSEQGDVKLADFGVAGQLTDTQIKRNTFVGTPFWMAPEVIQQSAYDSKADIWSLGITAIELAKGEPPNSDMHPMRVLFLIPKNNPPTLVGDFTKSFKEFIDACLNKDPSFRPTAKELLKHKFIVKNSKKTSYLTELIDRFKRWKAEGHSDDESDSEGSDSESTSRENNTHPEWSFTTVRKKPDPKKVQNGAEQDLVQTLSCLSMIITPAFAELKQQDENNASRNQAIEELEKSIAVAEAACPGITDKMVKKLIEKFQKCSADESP

Take `CN(C(=O)CN1CCOCC1)c1ccc2sc3c(-c4cccc5c(=O)cc(N6CC7CCC(C6)O7)oc45)cccc3c2c1` [NU5455]: the inhibition at 1 µM turned out to be 6.9%.
